Data published in US6984634B2, “Bile-acid conjugates for providing sustained systemic concentrations of drugs” (XenoPort, Inc., priority 2000, dated 2006).
Read-outs that look alike come from different tables or passages of the source.

Columns and labels:
rPEPT1 [1] = biological target: T1, rPEPT1 (Rattus norvegicus, UniProt P51574); assay: Inhibition of radiolabeled Gly-Sar uptake in rPEPT1-expressing CHO cells; type: cell-based
T1 construct: expressed in transfected cells; host or cells: CHO cells
T1 sequence (P51574 1-710): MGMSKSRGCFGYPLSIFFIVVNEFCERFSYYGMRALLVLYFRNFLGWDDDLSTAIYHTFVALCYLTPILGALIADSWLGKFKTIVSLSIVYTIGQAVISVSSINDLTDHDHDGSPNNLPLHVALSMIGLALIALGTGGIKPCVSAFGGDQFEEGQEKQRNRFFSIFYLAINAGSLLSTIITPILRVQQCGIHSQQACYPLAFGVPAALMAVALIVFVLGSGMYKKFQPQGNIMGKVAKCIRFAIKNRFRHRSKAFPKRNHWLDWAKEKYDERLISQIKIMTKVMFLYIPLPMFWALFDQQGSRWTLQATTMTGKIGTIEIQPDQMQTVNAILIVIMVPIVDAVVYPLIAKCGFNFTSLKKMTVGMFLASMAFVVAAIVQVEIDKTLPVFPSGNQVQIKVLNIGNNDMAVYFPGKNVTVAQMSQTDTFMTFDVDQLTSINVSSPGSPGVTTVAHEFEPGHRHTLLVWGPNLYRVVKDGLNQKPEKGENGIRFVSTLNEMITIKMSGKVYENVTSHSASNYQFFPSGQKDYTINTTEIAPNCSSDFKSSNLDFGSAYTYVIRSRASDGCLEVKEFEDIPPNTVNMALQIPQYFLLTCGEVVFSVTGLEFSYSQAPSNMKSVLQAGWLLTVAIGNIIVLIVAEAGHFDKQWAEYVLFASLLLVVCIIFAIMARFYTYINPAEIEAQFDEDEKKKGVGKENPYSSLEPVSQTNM
Experimental: (§1) Rat and human PEPT1 and PEPT2 expressing CHO cell lines were prepared as described in PCT Application WO01/20331. Gabapentin-containing dipeptides were evaluated for interaction with the peptide transporters using a radiolabeled substrate uptake assay in a competitive inhibition format, as described in PCT Application WO01/20331. Transport-induced currents were also measured in Xenopus oocytes transfected with rat and human PEPT1 and PEPT2.

rPEPT1 [2] = biological target: T1, rPEPT1; assay: Transport-induced currents in Xenopus oocytes expressing rPEPT1; type: cell-based; details: relative to Gly-Sar, test compound 1 mM
Experimental: as §1

rPEPT2 [3] = biological target: T2, rPEPT2 (Rattus norvegicus, UniProt Q63424); assay: Transport-induced currents in Xenopus oocytes expressing rPEPT2; type: cell-based; details: relative to Gly-Sar, test compound 1 mM
T2 construct: expressed in transfected cells; host or cells: Xenopus oocytes
T2 sequence (Q63424 1-729): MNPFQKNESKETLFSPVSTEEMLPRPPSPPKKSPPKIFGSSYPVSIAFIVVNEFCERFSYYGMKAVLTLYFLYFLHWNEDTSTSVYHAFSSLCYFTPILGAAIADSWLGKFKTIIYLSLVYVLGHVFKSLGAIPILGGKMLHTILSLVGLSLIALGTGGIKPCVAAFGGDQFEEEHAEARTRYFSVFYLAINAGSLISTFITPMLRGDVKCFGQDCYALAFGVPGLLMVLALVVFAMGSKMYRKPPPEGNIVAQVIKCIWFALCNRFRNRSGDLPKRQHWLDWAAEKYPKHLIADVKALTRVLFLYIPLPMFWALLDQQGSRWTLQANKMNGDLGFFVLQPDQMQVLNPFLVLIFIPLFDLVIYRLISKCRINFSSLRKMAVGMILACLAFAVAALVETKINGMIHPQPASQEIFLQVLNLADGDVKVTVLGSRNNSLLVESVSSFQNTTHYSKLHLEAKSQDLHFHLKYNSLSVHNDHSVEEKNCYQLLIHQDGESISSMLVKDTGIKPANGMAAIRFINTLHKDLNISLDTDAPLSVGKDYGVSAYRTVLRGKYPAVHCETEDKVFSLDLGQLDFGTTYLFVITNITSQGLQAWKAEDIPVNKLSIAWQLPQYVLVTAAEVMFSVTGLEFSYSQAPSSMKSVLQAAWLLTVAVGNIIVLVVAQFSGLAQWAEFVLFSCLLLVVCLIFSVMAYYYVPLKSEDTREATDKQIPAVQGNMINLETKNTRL
Experimental: as §1

IBAT transporter [4] = biological target: T3, IBAT transporter (Homo sapiens, UniProt Q12908); assay: Inhibition of radiolabeled taurocholate uptake in IBAT-expressing CHO cells; type: cell-based; details: radiolabeled competition assay in IBAT-expressing CHO cells, taurocholate 5 μM
T3 sequence (Q12908 1-348): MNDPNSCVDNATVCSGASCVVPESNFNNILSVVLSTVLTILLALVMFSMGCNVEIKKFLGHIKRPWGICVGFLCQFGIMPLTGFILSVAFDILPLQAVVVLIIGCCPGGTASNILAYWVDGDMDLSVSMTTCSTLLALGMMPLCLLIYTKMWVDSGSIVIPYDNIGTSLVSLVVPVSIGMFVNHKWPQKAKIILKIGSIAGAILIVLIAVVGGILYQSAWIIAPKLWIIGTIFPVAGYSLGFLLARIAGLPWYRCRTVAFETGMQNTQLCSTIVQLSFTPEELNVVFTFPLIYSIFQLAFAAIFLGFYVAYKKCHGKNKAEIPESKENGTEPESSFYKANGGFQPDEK
Experimental: (§2) (a) Inhibition of Radiolabeled Taurocholate Uptake
(§3) CHO cells transfected with the IBAT or LBAT transporter were seeded into 96-well microtiter plates at 100,000 cells/well in 100 μL DMEM containing 10% serum, glutamine and Penstrep. After overnight incubation the media was removed and test compound (25 μL) added at 2× the final desired concentration. Tritiated taurocholate (50,000 CPM/well) was diluted with cold substrate to a final concentration of 5 μM and 25 μL/well of this mixture was added to the plate. After incubating for 1 h at room temperature the solution was removed and the plate washed 4× with PBS at 4° C. 200 μL/well of scintillant is added and the plate then read in a Wallac microbeta counter. The inhibition data is processed by standard methods to calculate an inhibition constant K1 for the test compound.

IBAT transporter [5] = biological target: T3, IBAT transporter; assay: Electrogenic transport in Xenopus oocytes expressing IBAT; type: cell-based; details: for % Max. (GDC): relative to glycodeoxycholate
Description: (b) Analysis of Electrogenic Transport in Xenopus Oocytes
RNA preparation: Human IBAT Transporter cDNAs were subcloned into a modified pGEM plasmid that contains 5′ and 3′ untranslated sequences from the Xenopus β-actin gene. These sequences increase RNA stability and protein expression. Plasmid cDNA was linearized and used as template for in vitro transcription (Epicentre Technologies transcription kit, 4:1 methylated:non-methylated GTP).
Xenopus oocyte isolation. Xenopus laevis frogs were anesthetized by immersion in Tricaine ([…] in deionized water) for 15 min. Oocytes were removed and digested in frog ringer solution (90 mM NaCl, 2 mM KCl, 1 mM MgCl2, 10 mM NaHEPES, pH 7.45, no CaCl2) with 1 mg/mL collagenase (Worthington Type 3) for 80-100 min with shaking. The oocytes were washed 6 times, and the buffer changed to frog ringer solution containing CaCl2 (1.8 mM). Remaining follicle cells were removed if necessary. Cells were incubated at 16° C., and each oocyte injected with […] RNA in […] solution.
Electrophysiology measurements. Transport currents were measured 2-14 days after injection, using a standard two-electrode electrophysiology set-up (Geneclamp 500 amplifier, Digidata 1320/PCLAMP software and ADInstruments hardware and software were used for signal acquisition). Electrodes ([…]) were microfabricated using a Sutter Instrument puller and filled with 3M KCl. The bath was directly grounded (transporter currents were less than 0.3 μA). Bath flow was controlled by an automated perfusion system (ALA Scientific Instruments, solenoid valves).
For transporter pharmacology, oocytes were clamped at −60 to −90 mV, and continuous current measurements acquired using PowerLab Software and an ADInstruments digitizer. Current signals were lowpass filtered at 20 Hz and acquired at 4-8 Hz. All bath and drug-containing solutions were frog ringers solution containing CaCl2. Drugs were applied for 10-30 seconds until the induced current reached a new steady-state level, followed by a control solution until baseline currents returned to levels that preceded drug application. The difference current (baseline subtracted from peak current during drug application) reflected the net movement of charge resulting from electrogenic transport and was directly proportional to tranport rate. Recordings were made from a single oocyte for up to 60 min, enabling 30-40 separate compounds to be tested per oocyte. […] To compare results between oocytes expressing different levels of transport activity, a saturating concentration of glycodeoxycholate (300 μM) was used as a common reference to normalize results from test compounds. Using this normalization procedure Vmax (i.e. maximal induced current) for different compounds tested on different oocytes could be compared.

LBAT transporter = biological target: T4, LBAT transporter (Homo sapiens, UniProt Q14973); assay: Inhibition of radiolabeled taurocholate uptake in LBAT-expressing CHO cells; type: cell-based; details: radiolabeled competition assay in LBAT-expressing CHO cells, taurocholate 5 μM
T4 sequence (Q14973 1-349): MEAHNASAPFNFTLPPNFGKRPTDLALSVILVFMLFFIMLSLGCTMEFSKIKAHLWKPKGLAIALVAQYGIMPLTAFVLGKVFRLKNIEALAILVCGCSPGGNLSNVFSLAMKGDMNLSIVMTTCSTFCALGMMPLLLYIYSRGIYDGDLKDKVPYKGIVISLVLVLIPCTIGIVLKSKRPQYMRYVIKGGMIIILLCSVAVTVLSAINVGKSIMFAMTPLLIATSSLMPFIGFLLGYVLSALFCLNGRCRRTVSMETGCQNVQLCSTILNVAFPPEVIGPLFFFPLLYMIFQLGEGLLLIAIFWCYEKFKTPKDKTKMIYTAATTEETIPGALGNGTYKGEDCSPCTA
Experimental: as §2, §3

rPEPT2 [6] = biological target: T2, rPEPT2; assay: Inhibition of radiolabeled Gly-Sar uptake in rPEPT2-expressing CHO cells; type: cell-based
Experimental: as §1

[7] = Pharmacokinetics in rats, Gabapentin in plasma after oral administration; details: male, Sprague-Dawley, rat, 25 mg/kg
Experimental: The pharmacokinetics of the prodrug Cholyl-Phe-Gabapentin (9g) were examined in rats. Three groups of four male Sprague-Dawley rats (approx 200 g) with jugular cannulae each received one of the following treatments: A) a single bolus intravenous injection of Gabapentin (25 mg/kg, as a solution in water); B) a single oral dose of Gabapentin (25 mg/kg, as a solution in water) administered by oral gavage; C) a single oral dose of (9g) (103.5 mg/kg, as a solution in water) administered by oral gavage. Animals were fasted overnight prior to dosing and until 4 hours post-dosing. Serial blood samples were obtained over 24 hours following dosing and blood was processed for plasma by centrifugation. Plasma samples were stored at −80° C. until analyzed.
Concentrations of (9g) or (2) in plasma samples were determined by LC/MS/MS as described above. Plasma (50 μL) was precipitated by addition of […] of methanol and supernatent was injected directly onto the LC/MS/MS system.

Row | Compound | % Max. (Gly-Sar) (rPEPT1 [2]) | IC50 (IBAT transporter [4]) | EC50 (IBAT transporter [5]) | IC50 (LBAT transporter) | other results
1 | NC(Cc1ccccc1)C(=O)NCC1(CC(=O)O)CCCCC1 (centres unmarked) [Phe-Gabapentin] | 52% | – | – | – | IC50 (rPEPT1 [1]): 56 µM; % Max. (Gly-Sar) (rPEPT2 [3]): 77%
2 | CC(CCC(=O)NC(Cc1ccccc1)C(=O)NCC1(CC(=O)O)CCCCC1)C1CCC2C3C(O)CC4CC(O)CCC4(C)C3CCC12C (centres unmarked) [UDC-Phe-Gabapentin (9p), Ursodeoxycholyl-Phe-Gabapentin] | – | 27 µM | 18 µM | 0.7 µM | % Max. (GDC) (IBAT transporter [5]): 27%
3 | NC(Cc1ccc(O)cc1)C(=O)NCC1(CC(=O)O)CCCCC1 (centres unmarked) [Tyr-Gabapentin] | 22% | – | – | – | IC50 (rPEPT1 [1]): 130 µM; IC50 (rPEPT2 [6]): 4 µM; % Max. (Gly-Sar) (rPEPT2 [3]): 73%
4 | C[C@H](CCC(=O)NCC(=O)NCC1(CC(=O)O)CCCCC1)[C@H]1CC[C@H]2[C@@H]3[C@H](O)C[C@@H]4C[C@H](O)CC[C@]4(C)[C@H]3C[C@H](O)[C@]12C [Cholyl-Gly-Gabapentin (9a), Cholyl-Gly-Gabapentin] | – | 66 µM | 22 µM | 64 µM | –
5 | NCC(=O)NCC1(CC(=O)O)CCCCC1 [Gly-Gabapentin] | 76% | – | – | – | IC50 (rPEPT1 [1]; radiolabeled competition assay in rPEPT1-expressing CHO cells, read-out: IC50): 320 µM
6 | CC(CCC(=O)NC(Cc1ccc(O)cc1)C(=O)NCC1(CC(=O)O)CCCCC1)C1CCC2C3C(O)CC4CC(O)CCC4(C)C3CC(O)C12C (centres unmarked) [Cholyl-Tyr-Gabapentin (9h), Cholyl-Tyr-Gabapentin] | – | 52 µM | 160 µM | 15 µM | % Max. (GDC) (IBAT transporter [5]): 13%
7 | NCC1(CC(=O)O)CCCCC1 [Gabapentin, gabapentin] | – | – | – | – | bioavailability ([7]; oral): 87 ± 18%; Tmax ([7]; po): 1.3 ± 0.5 h; half-life ([7]; po): 3 ± 1.3 h
